Assay results: patent US20260042764A1, “COMPOSITIONS AND METHODS FOR INHIBITION OF KRAS” (TheRas, Inc., priority 2022, published 2026)
pIC50: −log10 of the molar value.

What was measured:
[1] = target: T1, Avi-KRAS WT (1-169) GppNHp/RAF1 RBD-3xFLAG (52-151) (Homo sapiens, UniProt P01116); test: Raf1-KRAS WT-GppNHP disruption HTRF assay (Biological Example 1); format: binding
T1 construct: Avi-KRAS WT (1-169)
How it was run: (§1)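 Percent activity versus DMSO (100%) was derived from HTRF signal after KRAS–RAF1 RBD protein mix was incubated 1 h at room temperature with shaking and detection reagents were added for a further 1 h.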

[2] = target: T2, Avi-KRAS G12R (1-169) GppNHp/RAF1 RBD-3xFLAG (52-151) (Homo sapiens, UniProt P01116, G12R); test: Raf1-KRAS G12R-GppNHP disruption HTRF assay (Biological Example 1); format: binding
T2 construct: Avi-KRAS G12R (1-169)
How it was run: as §1

SW620 cells (KRAS G12V) = test: Cell-based pERK HTRF assay in SW620 cell (Biological Example 4); conditions: pERK HTRF
How it was run: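 Read-out: HTRF pERK signal (excitation 320 nm, emission 615 nm) from lysates of SW620 cells after 4 h compound exposure. Dose range was 9 points, half-log steps from 1 μM, in 0.25% DMSO; antibody incubation ran 4–24 h at room temperature.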

[3] = target: T3, Avi-KRAS G12D (1-169) GppNHp/RAF1 RBD-3xFLAG (52-151) (Homo sapiens, UniProt P01116, G12D); test: Raf1-KRAS G12D-GppNHP disruption HTRF assay (Biological Example 1); format: binding
T3 construct: Avi-KRAS G12D (1-169)
How it was run: as §1

GP2d cells (KRAS G12D) = test: Cell-based pERK HTRF assay in GP2d cell (Biological Example 2); conditions: GP2d (KRAS G12D) cells, pERK HTRF
How it was run: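 Phospho-ERK in lysed cells was detected by HTRF using Eu cryptate and d2 antibodies, read between 4 and 24 h at room temperature. Prior to lysis, KRAS G12D GP2d cells, seeded the day before in DMEM with 10% FBS, were exposed to compounds for 60 min. Compounds were tested as 9-point half-log curves from 1 μM or 100 nM top, with 0.25% DMSO.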

[4] = target: T4, Avi-KRAS G12V (1-169) GppNHp/RAF1 RBD-3xFLAG (52-151) (Homo sapiens, UniProt P01116, G12V); test: Raf1-KRAS G12V-GppNHP disruption HTRF assay (Biological Example 1); format: binding
T4 construct: Avi-KRAS G12V (1-169)
How it was run: as §1

[5] = Homo sapiens, SW-620, SW620 (KRAS G12V) cells
[6] = KRAS WT, GppNHp-loaded, Table 11
[7] = KRAS G12R, GppNHp-loaded, Table 11
[8] = KRAS G12D, GppNHp-loaded, Table 11
[9] = KRAS G12V, GppNHp-loaded, Table 11
[10] = KRAS WT, GppNHp-loaded, class symbols
[11] = KRAS G12R, GppNHp-loaded, class symbols
[12] = Homo sapiens, SW-620, SW620 (KRAS G12V) cells, class symbols
[13] = KRAS G12D, GppNHp-loaded, class symbols
[14] = KRAS G12V, GppNHp-loaded, class symbols

T2 sequence (P01116 1-169 isoform P01116-2 G12R): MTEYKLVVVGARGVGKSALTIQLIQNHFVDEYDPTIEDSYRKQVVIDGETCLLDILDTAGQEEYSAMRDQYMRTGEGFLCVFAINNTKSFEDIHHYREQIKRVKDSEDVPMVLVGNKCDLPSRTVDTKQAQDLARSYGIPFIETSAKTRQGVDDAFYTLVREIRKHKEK
T1 sequence (P01116 1-169 isoform P01116-2): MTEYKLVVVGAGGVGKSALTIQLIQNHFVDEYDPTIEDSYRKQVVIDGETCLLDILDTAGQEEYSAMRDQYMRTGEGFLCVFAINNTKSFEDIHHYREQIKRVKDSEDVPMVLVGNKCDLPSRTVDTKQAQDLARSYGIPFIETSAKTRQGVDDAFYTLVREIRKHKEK
T4 sequence (P01116 1-169 isoform P01116-2 G12V): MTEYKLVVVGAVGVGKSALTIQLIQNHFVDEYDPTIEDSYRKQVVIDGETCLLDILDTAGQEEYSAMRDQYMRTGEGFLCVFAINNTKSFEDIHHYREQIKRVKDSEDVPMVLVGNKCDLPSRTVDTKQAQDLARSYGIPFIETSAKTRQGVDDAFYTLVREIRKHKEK
T3 sequence (P01116 1-169 isoform P01116-2 G12D): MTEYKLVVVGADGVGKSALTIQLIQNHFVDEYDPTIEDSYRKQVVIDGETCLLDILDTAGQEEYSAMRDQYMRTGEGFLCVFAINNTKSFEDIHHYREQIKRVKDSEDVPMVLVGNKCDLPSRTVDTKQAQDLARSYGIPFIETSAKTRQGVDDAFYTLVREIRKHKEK

Row | Structure (SMILES) | pIC50 ([1]; KRAS WT-GppNHp/RAF1 RBD HTRF) | pIC50 ([2]; KRAS G12R-GppNHp/RAF1 RBD HTRF) | pIC50 (SW620 cells (KRAS G12V); [5]) | pIC50 ([3]; KRAS G12D-GppNHp/RAF1 RBD HTRF) | pIC50 (GP2d cells (KRAS G12D); GP2d) | pIC50 ([4]; KRAS G12V-GppNHp/RAF1 RBD HTRF) | pIC50 [1, 6] | pIC50 [2, 7] | pIC50 [3, 8] | pIC50 [4, 9] | other results
1 | N#Cc1c(N)sc2c(F)ccc(-c3c(C(F)(F)F)cc4c(N5CCc6[nH]ncc6C5)nc(OCC56CCCN5CC(F)C6)nc4c3F)c12 (stereo not drawn) [Compound 449] | 5.00 to 6.00 | 5.00 to 6.00 | 6.00 to 7.00 | 5.00 to 6.00 | 6.00 to 7.00 | 5.00 to 6.00 |  |  |  |  | 
2 | CC(=O)N(C)CCN(C)c1nc(OC[C@@]23CCCN2C[C@H](F)C3)nc2c(F)c(-c3ccc(F)c4sc(N)c(C#N)c34)c(C(F)(F)F)cc12 [Compound 255] |  |  | > 7.00 |  | > 7.00 |  | 6.00 to 7.00 | 6.00 to 7.00 | 6.00 to 7.00 | 6.00 to 7.00 | 
3 | C[C@@H]1[C@H](N(C)c2nc(OC[C@@]34CCCN3C[C@H](F)C4)nc3c(F)c(-c4ccc(F)c5sc(N)c(C#N)c45)c(C(F)(F)F)cc23)CCN1C(=O)C1(C#N)CC1 [Compound 325] | 6.00 to 7.00 | 6.00 to 7.00 | > 7.00 | 6.00 to 7.00 | > 7.00 | 6.00 to 7.00 |  |  |  |  | 
4 | CCN1C[C@@H]2C[C@H](N(CC)c3nc(OC[C@@]45CCCN4C[C@H](F)C5)nc4c(F)c(-c5ccc(F)c6sc(N)c(C#N)c56)c(C(F)(F)F)cc34)CN2C1=O (atropisomer, axis not shown) [Compound 762] |  |  |  |  |  |  |  |  |  |  | pIC50 [1, 10]: > 7.00; pIC50 [2, 11]: > 7.00; pIC50 (SW620 cells (KRAS G12V); [12]): > 7.00; pIC50 [3, 13]: > 7.00; pIC50 (GP2d cells (KRAS G12D); GP2d, class symbols): > 7.00; pIC50 [4, 14]: > 7.00
5 | CN(c1nc(OC[C@@]23CCCN2C[C@H](F)C3)nc2c(F)c(-c3ccc(F)c4sc(N)c(C#N)c34)c(C(F)(F)F)cc12)[C@H]1CCS(=O)(=O)C1 (single isomer, unassigned) [Compound 221] |  |  |  |  |  |  | 6.00 to 7.00 | 6.00 to 7.00 | 6.00 to 7.00 | 6.00 to 7.00 | pIC50 (SW620 cells (KRAS G12V); SW620 (KRAS G12V) cells): > 7.00; pIC50 (GP2d cells (KRAS G12D)): > 7.00
6 | C[C@@H]1Cn2nncc2CN1c1nc(OC[C@@]23CCCN2C[C@H](F)C3)nc2c(F)c(-c3ccc(F)c4sc(N)c(C#N)c34)c(C(F)(F)F)cc12 (atropisomer, axis not shown) [Compound 530] | 6.00 to 7.00 | 6.00 to 7.00 | > 7.00 | 6.00 to 7.00 | > 7.00 | 6.00 to 7.00 |  |  |  |  | 
7 | C[C@H]1[C@H](O)CCCN1c1nc(OC[C@@]23CCCN2C[C@H](F)C3)nc2c(F)c(-c3ccc(F)c4sc(N)c(C#N)c34)c(C(F)(F)F)cc12 [Compound 473] | 6.00 to 7.00 | 6.00 to 7.00 | > 7.00 | 6.00 to 7.00 | > 7.00 | 6.00 to 7.00 |  |  |  |  | 
8 | CC(=O)N1C[C@@H](N(C)c2nc(OC[C@@]34CCCN3C[C@H](F)C4)nc3c(F)c(-c4ccc(F)c5sc(N)c(C#N)c45)c(C(F)(F)F)cc23)[C@@H](F)C1 [Compound 187] |  |  | > 7.00 |  | > 7.00 |  | 6.00 to 7.00 | 6.00 to 7.00 | > 7.00 | 6.00 to 7.00 | 
9 | CC(=O)N1C[C@@H](N(C)c2nc(OC[C@@]34CCCN3C[C@H](F)C4)nc3c(F)c(-c4ccc(F)c5sc(N)c(C#N)c45)c(C(F)(F)F)cc23)C[C@H]1CO [Compound 247] |  |  | 6.00 to 7.00 |  | > 7.00 |  | 6.00 to 7.00 | 6.00 to 7.00 | 6.00 to 7.00 | 6.00 to 7.00 | 
10 | CC(C)C(=O)N1CC[C@](C)(N(C)c2nc(OC[C@@]34CCCN3C[C@H](F)C4)nc3c(F)c(-c4ccc(F)c5sc(N)c(C#N)c45)c(C(F)(F)F)cc23)C1 [Compound 499] | 5.00 to 6.00 | 5.00 to 6.00 | > 7.00 | 6.00 to 7.00 | > 7.00 | 5.00 to 6.00 |  |  |  |  | 
11 | CCN(c1nc(OC[C@@]23CCCN2C[C@H](F)C3)nc2c(F)c(-c3ccc(F)c4sc(N)c(C#N)c34)c(C(F)(F)F)cc12)[C@H]1CCN(C(=O)OC)[C@@H]1C (atropisomer, axis not shown) [Compound 688] |  |  |  |  |  |  |  |  |  |  | pIC50 [1, 10]: 6.00 to 7.00; pIC50 [2, 11]: > 7.00; pIC50 (SW620 cells (KRAS G12V); [12]): > 7.00; pIC50 [3, 13]: > 7.00; pIC50 (GP2d cells (KRAS G12D); GP2d, class symbols): > 7.00; pIC50 [4, 14]: 6.00 to 7.00
